Data set [1] deals with osteoclast differentiation. Kind of data set: Inhibitory effects on osteoclast differentiation (co-culture of bone marrow cells with osteoblast, TRAP staining). It is filed as cell-based, mice. The note with it: Mus musculus, Osteoclast, 168 h, read-out: % inhibitory activity on osteoclastogenesis. The essentials:
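Percent inhibition versus control is based on microscope counts of TRAP-positive osteoclasts (3 or more nuclei) after 7 days of compound exposure. Cultures paired ddY mouse marrow cells with ICR calvarial osteoblasts, driven by dexamethasone 10^−7M plus vitamin D3 10^−8M, with medium and compound changed every 2–3 days.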

The test system of data set [2] is osteoblast. Kind of data set: Effect on bone formation (osteoblast nodule mineralization, Alizarin red S). It is filed as cell-based, ICR mice. The note with it: calvarial osteoblast in osteogenic differentiation medium. On the procedure: The osteoblast, treated in this experiment, was prepared from the osteoblast as prepared in the above.
The osteoblast, isolated from sequential enzymatic treatment of calvariae from neonated ICR mice, was cultured in α-MEM medium containing 10% FBS for 4˜5 days. The osteoblast was also cultured for 24 hr after seeding the cells on a 12 well plate (10^5 cell/well), and medium was exchanged with the osteogenic differentiation medium containing 10 mM β-glycerophosphate and 50 μg/ml ascorbic acid.
The test substances at the concentration of 0.1 uM and 0.1 nM were added to the above medium for evaluating the effect promoting bone formation. The differentiation medium containing the test substances was exchanged every 3 or 4 days for 14 to 21 days until confirming the nodule mineralization.
The cell was rinsed twice with distilled water, and fixed by the 10% formalin solutions for 30 minutes. Alizarin red S and Von-kossa Solution were treated on the plate for measuring deposited calcium and phosphate in cell matrix, and the activity of the test substances on the bone formation was analyzed by determining stained area.
Additionally, for the purpose of estimating quantitative Arizarin red S in cell matrix, stained Arizarin red S was extracted by treating 10 mM sodium phosphate solution (pH 7.0), containing 10% cetylpyridinium chloride, for 15˜30 minutes in the shaking incubator, and then the amount of the deposited calcium was estimated by calculating the absorbance of the extracted Arizarin red S at 564 nm. […]

The subject of data set [3] is cells. Nature of the data set: Cytotoxicity test (MTT). The note with it: 10^−6M, 72 hrs, compared with the control group. It is filed as cell-based. Here is the method: Cytotoxic effect of benzamidine derivatives was evaluated by the experiment described below.
The test substance was diluted in appropriate solvent at 10^−2M concentration. […] Cells to be used in cytotoxitic test were plated on a 96-well microplate in a dose of 1×10^4 cell/100 μL per well and cultured for 72 hrs. 25 μL of MTT [3-(4,5-dimethyl-2-thiazolyl)-2,5-diphenyl-2H-tetrazolium bromide] dissolved in PBS at 2 mg/mL were added before 4 hrs of the end of culture. After reaction, the plates were centrifuged, medium was decanted and 100 μL of DMSO was added to dissolve formazan. Lastly, the absorbance of developed plates was measured at 540 nm.

The test system of data set [4] is ovariectomized ddY mouse. Nature of the data set: Therapeutic effect in the ovariectomized osteoporetic mouse model (trabecular bone volume of the femur). It is filed as in vivo, ddY mice. The note with it: Mus musculus, 672 h, 50 mg/kg/day oral gavage for 4 weeks from 4 weeks after ovariectomy, salts (methansulfonic acid or HCl), read-out: Changes on TBV (% changes vs vehicle control). On the procedure:
The therapeutic effects of each benzamidine derivates were evaluated on the ovariectomized ddY mouse. Benzamidine derivates were dosed from 4 weeks after operation for 4 weeks and the changes on the trabecular bone volume (TBV) of the femur were observed via histomorphometry.
Female ddY mice (6-wk old upon receipt, SLC, Japan) were used after acclimatization for 7 days. Animals were allocated 5 per polycarbonate cage in a temperature (20-25° C.) and humidity (30-35%) controlled room. Light:dark cycle was 12 hr:12 hr and feed (Samyang, Korea) and water were supplied free to access.
Salts of benzamidine derivates (Methansulfonic acid or HCl) were used for the test substances of this invention. Test substances are dissolved and/or suspended in injectable distilled water and administered at a dosage volume of 10 ml/kg by oral gavage. All test substances are dosed from 4 weeks after operation for 4 weeks at 50 mg/kg/day.
To induce estrogen-deficient osteoporosis, bilateral ovaries are removed and then closed by routine methods. Operation was conduct under Ketamine hydrochloride and xylazine hydrochloride anesthesia.
The left femur of each mouse were separated at sacrifice, and fixed in 10% neutral buffered formalin (NBF), then decalcified in decalcifying solution (24.4% formic acid, and 0.5N sodium hydroxide) for 5 days (mixed decalcifying solution was exchanges once a day for 5 days). After the dexalcification, the femur was embedded in paraffin, sectioned (3˜4 μm) and stained with hematoxylin-eosin stain.
TBV was calculated using automated image analysis (analySIS Image Processing; SIS, Germany) under magnification of ×200 in the uniform area of trochlea epiphyseal regions (growth plate regions were excluded) of prepared histological specimens. TBV was calculated as percentage (%) levels.
The changes of TBV compared to that of vehicle control are calculated as following Equation 1 to help the understanding of the efficacy of test substances. Percentage changes=[((TBV of a−TBV of b)/TBV of b)×100] Equation 1

[5] abbreviates: 1 μm, co-culture of bone marrow cells and osteoblast, 7 days, TRAP-positive osteoclasts versus controls.
Setting [6] is: 1 m, co-culture of bone marrow cells and osteoblast, 7 days, TRAP-positive osteoclasts versus controls.

Read-outs that look alike come from different tables or passages of the source.

The molecule `CC(C)c1nc(-c2ccc(OCCCCCOc3ccc(C(=N)NO)cc3)cc2)cs1` [Example 5, N-hydroxy-4-(5-[4-(2-isopropyl-1,3-thiazol-4-yl)phenoxy]pentoxy)-benzamidine] had a melting point of 95 to 129 °C. Also, the inhibition at 1 µM in data set [1] (setting [5]) came out at 87.5%.

Turning to `CCCCCc1nc(-c2ccc(OCCCCCOc3ccc(C(=N)NO)cc3)cc2)cs1` [Example 9, N-hydroxy-4-(5-[4-(2-pentyl-1,3-thiazol-4-yl)phenoxy]pentoxy)-benzamidine], the inhibition at 1 µM in data set [1] turned out to be 100%. In addition, the “bone forming activity (%)” value in data set [2] (0.1 nM) was found to be 6.14%; in data set [2] (0.1 μM), 13.68%.

The molecule `Cc1nc(-c2ccc(OCCCCCOc3ccc(C(=N)NO)cc3)cc2)c(C)s1` [Example 10, N-hydroxy-4-(5-[4-(2,5-dimethyl-1,3-thiazol-4-yl)phenoxy]pentoxy)-benzamidine] yielded a melting point of 128 to 133 °C. In data set [1] (setting [5]), the inhibition at 1 µM amounted to 1.8%.

As to `CCc1nc(-c2ccc(OCCCCCOc3ccc(C(=N)NO)cc3)cc2)c(C)s1` [Example 11, N-hydroxy-4-(5-[4-(2-ethyl-5-methyl-1,3-thiazol-4-yl)phenoxy]pentoxy)-benzamidine], the melting point was in the range of 127 to 131 °C. The inhibition at 1 µM in data set [1] (setting [5]) came to 53.2%. In addition, the “Survival rates of the cells” value in data set [3] (MC3T3-E1 cells) was found to be 87.2%. For the same molecule, the “Survival rates of the cells” value in data set [3] (ST2 cells) is recorded as 33.1%.

As to `Cc1sc(C2CCCCC2)nc1-c1ccc(OCCCCCOc2ccc(C(=N)NO)cc2)cc1` [Example 14, N-hydroxy-4-(5-[4-(2-cyclohexyl-5-methyl-1,3-thiazol-4-yl)phenoxy]pentoxy)-benzamidine], the inhibition at 1 µM in data set [1] (setting [5]) came to 89.2%. Moreover, the figures for the “bone forming activity (%)” value in data set [2] (0.1 nM) and in data set [2] (0.1 μM) were 10.56% and 12.06%, respectively.

In turn, `CCCCCc1nc(-c2ccc(OCCCCCOc3ccc(C(=N)NO)cc3)cc2)c(C)s1` [Example 15, N-hydroxy-4-(5-[4-(5-methyl-2-pentyl-1,3-thiazol-4-yl)phenoxy]pentoxy)-benzamidine] showed a melting point of 81 to 89 °C. For the same molecule, the inhibition at 1 µM in data set [1] was 68.3%. Also, in data set [3] (MC3T3-E1 cells), the “Survival rates of the cells” value is listed as 81.8%. In addition, the “Survival rates of the cells” value in data set [3] (ST2 cells) stood at 42.3%.

The molecule `CCc1nc(-c2ccc(OCCCCCOc3ccc(C(=N)NO)cc3)cc2)c(CC)s1` [Example 18, N-hydroxy-4-(5-[4-(2,5-diethyl-1,3-thiazol-4-yl)phenoxy]pentoxy)-benzamidine] gave a melting point of 121 to 127 °C. Besides, the inhibition at 1 µM in data set [1] (setting [5]) came out at 24.8%.

Molecule `CCc1sc(-c2ccccc2)nc1-c1ccc(OCCCCCOc2ccc(C(=N)NO)cc2)cc1` [Example 20, N-hydroxy-4-(5-[4-(5-ethyl-2-phenyl-1,3-thiazol-4-yl)phenoxy]pentoxy)-benzamidine] displayed a melting point of 83 to 86 °C. Further, the inhibition at 1 µM in data set [1] (setting [5]) is 35.6%.

As to `CCc1sc(-c2cccnc2)nc1-c1ccc(OCCCCCOc2ccc(C(=N)NO)cc2)cc1` [Example 21, N-hydroxy-4-(5-[4-(5-ethyl-2-pyridin-3-yl-1,3-thiazol-4-yl)phenoxy]pentoxy)-benzamidine], the melting point is 146 to 153 °C. For the same molecule, the change in vivo at 50 mg/kg in data set [4] was determined as 75.5%.

`CCc1sc(C2CCCCC2)nc1-c1ccc(OCCCCCOc2ccc(C(=N)NO)cc2)cc1` [Example 22, N-hydroxy-4-(5-[4-(2-cyclohexyl-5-ethyl-1,3-thiazol-4-yl)phenoxy]pentoxy)-benzamidine]: the inhibition at 1 µM in data set [1] (setting [5]) is 92.6%. Besides, the “bone forming activity (%)” value in data set [2] (0.1 nM) is recorded as 10.33%; in data set [2] (0.1 μM) it was 8.56%.

Take `CCCCCc1nc(-c2ccc(OCCCCCOc3ccc(C(=N)NO)cc3)cc2)c(CC)s1` [Example 23, N-hydroxy-4-(5-[4-(5-ethyl-2-pentyl-1,3-thiazol-4-yl)phenoxy]pentoxy)-benzamidine]: the melting point was 79 to 88 °C. Besides, the inhibition at 1 µM in data set [1] was found to be 47.7%. The change in vivo at 50 mg/kg in data set [4] was determined as 28%.

Turning to `CCCCc1sc(C)nc1-c1ccc(OCCCCCOc2ccc(C(=N)NO)cc2)cc1` [Example 30, N-hydroxy-4-(5-[4-(5-butyl-2-methyl-1,3-thiazol-4-yl)phenoxy]pentoxy)-benzamidine], the melting point is 138 to 140 °C. The inhibition at 1 µM in data set [1] (setting [5]) is 47.7%.

For the molecule `CCCCc1sc(CC)nc1-c1ccc(OCCCCCOc2ccc(C(=N)NO)cc2)cc1` [Example 31, N-hydroxy-4-(5-[4-(5-butyl-2-ethyl-1,3-thiazol-4-yl)phenoxy]pentoxy)-benzamidine], the melting point lay within 80 to 84 °C. Also, in data set [1] (setting [5]), the inhibition at 1 µM was determined as 35.6%.

The molecule `CCCCc1sc(-c2cccnc2)nc1-c1ccc(OCCCCCOc2ccc(C(=N)NO)cc2)cc1` [Example 34, N-hydroxy-4-(5-[4-(5-butyl-2-pyridin-3-yl-1,3-thiazol-4-yl)phenoxy]pentoxy)-benzamidine] came in with a melting point of 107 to 118 °C. The inhibition at 1 µM in data set [1] (setting [5]) came to 28.7%.

Molecule `CC(C)c1nc(-c2ccc(OCCCCCOc3ccc(C(=N)NO)cc3)cc2)c(Cc2ccccc2)s1` [Example 39, N-hydroxy-4-(5-[4-(5-benzyl-2-isopropyl-1,3-thiazol-4-yl)phenoxy]pentoxy)-benzamidine] returned a melting point of 108 to 120 °C. Also, the inhibition at 1 µM in data set [1] (setting [5]) stood at 37.5%.

Take `N=C(NO)c1ccc(OCCCCCOc2ccc(-c3nc(-c4cccnc4)sc3Cc3ccccc3)cc2)cc1` [Example 41, N-hydroxy-4-(5-[4-(5-benzyl-2-pyridin-3-yl-1,3-thiazol-4-yl)phenoxy]pentoxy)-benzamidine]: the melting point is 134 to 143 °C. The inhibition at 1 µM in data set [1] (setting [5]) was 64%. Also, the “Survival rates of the cells” value in data set [3] (MC3T3-E1 cells) is reported as 84.6%. In addition, in data set [3] (ST2 cells), the “Survival rates of the cells” value is recorded as 48.7%.

As for `CCNc1nc(-c2ccc(OCCCCCOc3ccc(C(=N)NO)cc3)cc2)c(CC2CCCC2)s1` [Example 110, N-hydroxy-4-(5-[4-(5-cyclopentylmethyl-2-ethylamino-1,3-thiazol-4-yl)phenoxy]pentoxy)-benzamidine], the inhibition at 1 µM in data set [1] (setting [6]) stood at 100%. Moreover, the “bone forming activity (%)” value in data set [2] (0.1 nM) is 9.76%; in data set [2] (0.1 μM), 9.37%.

`CCc1sc(N(C)CCO)nc1-c1ccc(OCCCCCOc2ccc(C(=N)NO)cc2)cc1` [Example 129, N-hydroxy-4-(5-[4-(5-ethyl-2-((2-hydroxyethyl)-methyl-amino)-1,3-thiazol-4-yl)phenoxy]pentoxy)-benzamidine]: the inhibition at 1 µM in data set [1] (setting [6]) came out at 64.7%. In addition, the “bone forming activity (%)” value in data set [2] (0.1 nM) is 11.18%; in data set [2] (0.1 μM), 11.54%.

In general, melting point refers to the temperature of the solid-liquid transition.

The record behind these values is US8178688B2, “Benzamidine derivatives, process for the preparation thereof and pharmaceutical composition comprising the same” (Dong Wha Pharmaceutical Co., Ltd., priority 2004, dated 2012).
